Reference: the kinase profiling compilation of Christmann-Franck et al. (2016)
pKd: −log10 of the molar value.

Columns and labels:
Assay in all cases: KINOMEscan competition binding
ICK (human) = ICK (human) (UniProt Q9UPZ9); conditions: compound 1.0 µM
PIK3C2G (human) = PIK3C2G (human) (UniProt O75747); conditions: compound 1.0 µM
PRKG2 (human) = PRKG2 (human) (UniProt Q13237); conditions: compound 1.0 µM
[1] = test system: LRRK2 (human), Q5S007 [G2019S]; conditions: compound 1.0 µM
TYRO3 (human) = TYRO3 (human) (UniProt Q06418); conditions: compound 1.0 µM
Sequence of TYRO3 (human) (Q06418 whole entry, looked up): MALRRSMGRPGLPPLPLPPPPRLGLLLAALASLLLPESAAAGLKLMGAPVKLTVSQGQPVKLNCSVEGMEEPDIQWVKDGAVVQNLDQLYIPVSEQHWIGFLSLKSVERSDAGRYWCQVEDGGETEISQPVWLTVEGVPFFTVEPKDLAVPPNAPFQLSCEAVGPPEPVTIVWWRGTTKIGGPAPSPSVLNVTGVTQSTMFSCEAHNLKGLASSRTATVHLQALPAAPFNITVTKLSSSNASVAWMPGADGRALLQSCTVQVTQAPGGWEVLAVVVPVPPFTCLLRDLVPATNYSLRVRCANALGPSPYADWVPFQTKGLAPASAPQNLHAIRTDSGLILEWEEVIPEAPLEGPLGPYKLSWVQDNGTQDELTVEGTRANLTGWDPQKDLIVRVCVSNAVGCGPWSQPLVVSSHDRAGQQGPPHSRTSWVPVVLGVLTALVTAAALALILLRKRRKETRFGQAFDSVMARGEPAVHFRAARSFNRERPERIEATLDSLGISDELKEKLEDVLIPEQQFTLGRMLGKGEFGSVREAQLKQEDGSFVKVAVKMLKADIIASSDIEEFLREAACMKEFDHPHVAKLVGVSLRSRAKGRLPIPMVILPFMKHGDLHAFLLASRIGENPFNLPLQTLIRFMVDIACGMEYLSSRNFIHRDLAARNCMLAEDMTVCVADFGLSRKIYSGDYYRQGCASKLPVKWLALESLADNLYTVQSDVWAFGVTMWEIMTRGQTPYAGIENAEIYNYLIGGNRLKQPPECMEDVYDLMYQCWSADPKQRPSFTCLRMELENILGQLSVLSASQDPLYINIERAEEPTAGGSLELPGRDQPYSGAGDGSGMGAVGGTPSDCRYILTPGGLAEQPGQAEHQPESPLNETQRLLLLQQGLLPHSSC

CaMK1 (human) = CaMK1 (human) (UniProt Q14012); conditions: compound 1.0 µM
CHEK1 (human) = CHEK1 (human) (UniProt O14757); conditions: compound 1.0 µM
Sequence of CHEK1 (human) (O14757 whole entry, looked up): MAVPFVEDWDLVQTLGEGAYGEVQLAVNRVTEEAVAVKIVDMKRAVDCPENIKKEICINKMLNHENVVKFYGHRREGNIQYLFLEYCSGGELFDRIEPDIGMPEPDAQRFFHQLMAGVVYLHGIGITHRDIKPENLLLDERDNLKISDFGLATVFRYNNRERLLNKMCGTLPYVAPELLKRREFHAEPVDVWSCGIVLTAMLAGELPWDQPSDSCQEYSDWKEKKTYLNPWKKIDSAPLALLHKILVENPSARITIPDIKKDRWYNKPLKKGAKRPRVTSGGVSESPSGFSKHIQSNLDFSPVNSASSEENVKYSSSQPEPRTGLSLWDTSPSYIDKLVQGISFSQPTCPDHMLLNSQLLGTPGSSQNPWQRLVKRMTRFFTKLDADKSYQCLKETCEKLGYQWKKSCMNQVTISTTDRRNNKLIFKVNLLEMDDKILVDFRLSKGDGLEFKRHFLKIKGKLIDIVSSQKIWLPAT

IRAK4 (human) = IRAK4 (human) (UniProt Q9NWZ3); conditions: compound 1.0 µM
[2] = biological target: JAK1 JH1 catalytic (human) (UniProt P23458); conditions: compound 1.0 µM
KDR (human) = KDR (human) (UniProt P35968); conditions: compound 1.0 µM
DAPK1 (human) = DAPK1 (human) (UniProt P53355); conditions: compound 1.0 µM
CSF1R (human) = CSF1R (human) (UniProt P07333); conditions: compound 1.0 µM
NEK5 (human) = NEK5 (human) (UniProt Q6P3R8); conditions: compound 1.0 µM
ULK2 (human) = ULK2 (human) (UniProt Q8IYT8); conditions: compound 1.0 µM
[3] = test system: ABL1 (human), P00519 [E255K]; conditions: compound 1.0 µM
MYLK4 (human) = MYLK4 (human) (UniProt Q86YV6); conditions: for kinase still bound, per cent of control: compound 1.0 µM
Sequence of MYLK4 (human) (Q86YV6 whole entry, looked up): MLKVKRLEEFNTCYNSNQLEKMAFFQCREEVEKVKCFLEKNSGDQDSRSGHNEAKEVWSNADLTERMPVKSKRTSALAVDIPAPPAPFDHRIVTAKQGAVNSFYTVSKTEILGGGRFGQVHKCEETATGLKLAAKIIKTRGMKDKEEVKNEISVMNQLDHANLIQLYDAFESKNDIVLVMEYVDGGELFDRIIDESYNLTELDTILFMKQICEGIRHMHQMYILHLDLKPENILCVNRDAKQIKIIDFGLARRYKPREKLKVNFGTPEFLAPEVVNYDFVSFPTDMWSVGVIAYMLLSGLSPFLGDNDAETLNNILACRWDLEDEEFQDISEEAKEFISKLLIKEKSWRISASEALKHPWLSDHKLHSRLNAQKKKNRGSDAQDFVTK

PKN2 (human) = PKN2 (human) (UniProt Q16513); conditions: compound 1.0 µM
RPS6KA1 KD1 (human) = RPS6KA1 KD1 (human) (UniProt Q15418); conditions: compound 1.0 µM
LRRK2 (human) = LRRK2 (human) (UniProt Q5S007); conditions: compound 1.0 µM
STK35 (human) = STK35 (human) (UniProt Q8TDR2); conditions: compound 1.0 µM
PRKCQ (human) = PRKCQ (human) (UniProt Q04759); conditions: compound 1.0 µM
STK17A (human) = STK17A (human) (UniProt Q9UEE5); conditions: compound 1.0 µM
[4] = test system: FGFR3 (human), P22607 [G697C]; conditions: compound 1.0 µM
ADCK4 (human) = ADCK4 (human) (UniProt Q96D53); conditions: compound 1.0 µM
EPHA2 (human) = EPHA2 (human) (UniProt P29317); conditions: compound 1.0 µM
MAP3K3 (human) = MAP3K3 (human) (UniProt Q99759); conditions: compound 1.0 µM
EPHA4 (human) = EPHA4 (human) (UniProt P54764); conditions: compound 1.0 µM
NEK3 (human) = NEK3 (human) (UniProt P51956); conditions: compound 1.0 µM
IRAK1 (human) = IRAK1 (human) (UniProt P51617); conditions: compound 1.0 µM
RPS6KA2 KD1 (human) = RPS6KA2 KD1 (human) (UniProt Q15349); conditions: compound 1.0 µM
AURKC (human) = AURKC (human) (UniProt Q9UQB9); conditions: compound 1.0 µM
RIPK2 (human) = RIPK2 (human) (UniProt O43353); conditions: compound 1.0 µM
FGR (human) = FGR (human) (UniProt P09769); conditions: compound 1.0 µM
ITK (human) = ITK (human) (UniProt Q08881); conditions: compound 1.0 µM
Sequence of ITK (human) (Q08881 whole entry, looked up): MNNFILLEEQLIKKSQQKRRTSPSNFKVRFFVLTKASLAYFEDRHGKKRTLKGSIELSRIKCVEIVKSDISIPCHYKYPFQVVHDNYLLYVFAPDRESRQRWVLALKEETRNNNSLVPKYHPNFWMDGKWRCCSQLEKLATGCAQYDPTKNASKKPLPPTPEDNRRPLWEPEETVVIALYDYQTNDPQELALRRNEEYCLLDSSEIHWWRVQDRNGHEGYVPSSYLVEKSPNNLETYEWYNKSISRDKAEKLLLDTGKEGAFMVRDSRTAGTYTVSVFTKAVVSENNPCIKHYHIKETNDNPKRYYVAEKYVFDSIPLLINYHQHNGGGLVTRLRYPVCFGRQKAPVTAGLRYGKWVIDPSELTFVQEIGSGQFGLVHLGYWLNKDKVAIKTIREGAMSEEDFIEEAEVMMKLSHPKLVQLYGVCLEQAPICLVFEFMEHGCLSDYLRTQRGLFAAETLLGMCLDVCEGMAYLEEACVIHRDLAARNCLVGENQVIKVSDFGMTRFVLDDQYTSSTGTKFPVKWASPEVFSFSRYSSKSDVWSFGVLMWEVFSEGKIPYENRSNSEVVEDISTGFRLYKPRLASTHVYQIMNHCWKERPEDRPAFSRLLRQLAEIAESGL

CASK (human) = CASK (human) (UniProt O14936); conditions: compound 1.0 µM
Sequence of CASK (human) (O14936 whole entry, looked up): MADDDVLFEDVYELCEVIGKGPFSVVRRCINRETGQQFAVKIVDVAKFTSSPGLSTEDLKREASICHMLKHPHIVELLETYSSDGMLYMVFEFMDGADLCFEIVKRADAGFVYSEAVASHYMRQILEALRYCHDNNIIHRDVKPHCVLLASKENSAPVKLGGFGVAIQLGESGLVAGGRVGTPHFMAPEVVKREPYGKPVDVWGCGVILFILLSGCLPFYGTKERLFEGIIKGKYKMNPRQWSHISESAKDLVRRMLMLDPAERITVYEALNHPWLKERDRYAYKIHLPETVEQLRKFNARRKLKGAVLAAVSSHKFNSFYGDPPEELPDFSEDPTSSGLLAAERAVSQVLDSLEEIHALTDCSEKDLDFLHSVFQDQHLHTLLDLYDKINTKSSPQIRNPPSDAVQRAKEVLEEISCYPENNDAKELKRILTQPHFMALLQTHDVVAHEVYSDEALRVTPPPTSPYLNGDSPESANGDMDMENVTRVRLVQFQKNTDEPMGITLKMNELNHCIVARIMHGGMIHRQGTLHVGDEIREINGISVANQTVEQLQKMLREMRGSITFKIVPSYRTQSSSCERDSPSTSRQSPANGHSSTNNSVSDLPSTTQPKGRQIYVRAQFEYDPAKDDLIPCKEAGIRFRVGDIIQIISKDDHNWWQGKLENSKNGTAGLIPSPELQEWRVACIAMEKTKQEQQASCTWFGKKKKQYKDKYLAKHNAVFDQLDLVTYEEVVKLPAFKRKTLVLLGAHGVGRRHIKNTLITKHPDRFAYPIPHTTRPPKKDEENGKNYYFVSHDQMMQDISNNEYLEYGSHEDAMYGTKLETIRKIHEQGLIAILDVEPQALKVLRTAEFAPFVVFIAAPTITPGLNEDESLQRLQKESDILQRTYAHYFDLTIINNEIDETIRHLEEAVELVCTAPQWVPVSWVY

FLT1 (human) = FLT1 (human) (UniProt P17948); conditions: compound 1.0 µM
CSNK1G3 (human) = CSNK1G3 (human) (UniProt Q9Y6M4); conditions: compound 1.0 µM
CDKL3 (human) = CDKL3 (human) (UniProt Q8IVW4); conditions: compound 1.0 µM
IKBKE (human) = IKBKE (human) (UniProt Q14164); conditions: compound 1.0 µM
PDGFRB (human) = PDGFRB (human) (UniProt P09619); conditions: compound 1.0 µM
GSK3A (human) = GSK3A (human) (UniProt P49840); conditions: compound 1.0 µM
RPS6KA3 KD1 (human) = RPS6KA3 KD1 (human) (UniProt P51812); conditions: compound 1.0 µM
Sequence of RPS6KA3 KD1 (human) (P51812 whole entry, looked up): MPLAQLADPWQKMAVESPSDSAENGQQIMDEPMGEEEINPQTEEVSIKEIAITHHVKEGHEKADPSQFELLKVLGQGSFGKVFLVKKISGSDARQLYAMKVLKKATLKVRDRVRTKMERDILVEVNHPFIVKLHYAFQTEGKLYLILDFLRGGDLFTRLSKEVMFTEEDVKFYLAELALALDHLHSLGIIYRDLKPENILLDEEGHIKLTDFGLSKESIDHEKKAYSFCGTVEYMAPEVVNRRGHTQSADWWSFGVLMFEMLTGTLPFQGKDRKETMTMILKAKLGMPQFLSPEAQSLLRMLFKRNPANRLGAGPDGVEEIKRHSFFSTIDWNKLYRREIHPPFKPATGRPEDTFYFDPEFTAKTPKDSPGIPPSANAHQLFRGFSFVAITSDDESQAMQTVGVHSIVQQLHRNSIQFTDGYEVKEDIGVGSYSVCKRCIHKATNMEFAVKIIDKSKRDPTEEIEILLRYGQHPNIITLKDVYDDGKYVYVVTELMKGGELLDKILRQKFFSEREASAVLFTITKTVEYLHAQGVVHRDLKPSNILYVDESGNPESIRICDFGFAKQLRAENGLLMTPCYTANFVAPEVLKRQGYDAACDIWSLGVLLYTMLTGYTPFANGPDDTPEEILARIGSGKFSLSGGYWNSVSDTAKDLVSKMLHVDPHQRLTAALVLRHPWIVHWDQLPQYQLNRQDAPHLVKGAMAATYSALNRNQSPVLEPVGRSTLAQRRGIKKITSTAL

Sequence of PRKG2 (human) (Q13237 whole entry, looked up): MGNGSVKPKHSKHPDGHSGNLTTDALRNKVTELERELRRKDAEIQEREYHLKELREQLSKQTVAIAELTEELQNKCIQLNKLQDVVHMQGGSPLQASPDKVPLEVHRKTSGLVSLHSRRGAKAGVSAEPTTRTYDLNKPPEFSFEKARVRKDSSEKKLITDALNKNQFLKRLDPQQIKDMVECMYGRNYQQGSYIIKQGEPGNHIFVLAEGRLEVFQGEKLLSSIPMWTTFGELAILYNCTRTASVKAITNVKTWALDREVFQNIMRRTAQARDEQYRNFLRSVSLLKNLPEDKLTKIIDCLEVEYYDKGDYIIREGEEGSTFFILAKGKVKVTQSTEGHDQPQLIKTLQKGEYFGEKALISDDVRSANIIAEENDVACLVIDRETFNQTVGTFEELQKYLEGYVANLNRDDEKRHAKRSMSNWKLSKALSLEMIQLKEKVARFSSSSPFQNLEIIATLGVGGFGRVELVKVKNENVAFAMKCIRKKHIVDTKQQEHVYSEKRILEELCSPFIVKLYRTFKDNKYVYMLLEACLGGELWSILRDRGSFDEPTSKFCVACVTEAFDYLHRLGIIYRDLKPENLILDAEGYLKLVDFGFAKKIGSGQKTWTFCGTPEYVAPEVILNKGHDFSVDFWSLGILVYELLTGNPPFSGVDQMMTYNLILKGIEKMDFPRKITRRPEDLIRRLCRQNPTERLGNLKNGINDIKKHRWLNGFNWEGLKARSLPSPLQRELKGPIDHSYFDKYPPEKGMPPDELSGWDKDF

Which results are given for Cc1cc(NC(=O)c2cccc(NC(=O)/C=C/CN(C)C)c2)ccc1Nc1nccc(-c2cccnc2)n1?
kinase still bound, per cent of control (ICK (human)): 92%; kinase still bound, per cent of control (PIK3C2G (human)): 81%; kinase still bound, per cent of control (PRKG2 (human)): 97%; kinase still bound, per cent of control [1]: 67%; kinase still bound, per cent of control (TYRO3 (human)): 85%; kinase still bound, per cent of control (CaMK1 (human)): 81%; kinase still bound, per cent of control (CHEK1 (human)): 98%; kinase still bound, per cent of control (IRAK4 (human)): 93%; kinase still bound, per cent of control [2]: 98%; kinase still bound, per cent of control (KDR (human)): 96%; kinase still bound, per cent of control (DAPK1 (human)): 100%; kinase still bound, per cent of control (CSF1R (human)): 8.6%; kinase still bound, per cent of control (NEK5 (human)): 92%; kinase still bound, per cent of control (ULK2 (human)): 96%; kinase still bound, per cent of control [3]: 100%; pKd (MYLK4 (human)): 5.40; kinase still bound, per cent of control (MYLK4 (human)): 9.6%; kinase still bound, per cent of control (PKN2 (human)): 58%; kinase still bound, per cent of control (RPS6KA1 KD1 (human)): 99%; kinase still bound, per cent of control (LRRK2 (human)): 50%; kinase still bound, per cent of control (STK35 (human)): 68%; kinase still bound, per cent of control (PRKCQ (human)): 100%; kinase still bound, per cent of control (STK17A (human)): 24%; kinase still bound, per cent of control [4]: 100%; kinase still bound, per cent of control (ADCK4 (human)): 93%; kinase still bound, per cent of control (EPHA2 (human)): 100%; kinase still bound, per cent of control (MAP3K3 (human)): 95%; kinase still bound, per cent of control (EPHA4 (human)): 100%; kinase still bound, per cent of control (NEK3 (human)): 73%; kinase still bound, per cent of control (IRAK1 (human)): 13%; kinase still bound, per cent of control (RPS6KA2 KD1 (human)): 100%; kinase still bound, per cent of control (AURKC (human)): 95%; kinase still bound, per cent of control (RIPK2 (human)): 99%; kinase still bound, per cent of control (FGR (human)): 100%; kinase still bound, per cent of control (ITK (human)): 100%; kinase still bound, per cent of control (CASK (human)): 100%; kinase still bound, per cent of control (FLT1 (human)): 100%; kinase still bound, per cent of control (CSNK1G3 (human)): 100%; kinase still bound, per cent of control (CDKL3 (human)): 100%; kinase still bound, per cent of control (IKBKE (human)): 91%; kinase still bound, per cent of control (PDGFRB (human)): 4.7%; kinase still bound, per cent of control (GSK3A (human)): 92%; kinase still bound, per cent of control (RPS6KA3 KD1 (human)): 100%

What does the source list for CN(C)C/C=C/C(=O)Nc1cccc(C(=O)Nc2ccc(Nc3nccc(/C(C#N)=C4\Nc5ccccc5S4)n3)cc2)c1?
kinase still bound, per cent of control (ICK (human)): 100%; kinase still bound, per cent of control (PIK3C2G (human)): 100%; kinase still bound, per cent of control (PRKG2 (human)): 100%; kinase still bound, per cent of control [1]: 100%; kinase still bound, per cent of control (TYRO3 (human)): 100%; kinase still bound, per cent of control (CaMK1 (human)): 100%; kinase still bound, per cent of control (CHEK1 (human)): 100%; kinase still bound, per cent of control (IRAK4 (human)): 71%; kinase still bound, per cent of control [2]: 100%; kinase still bound, per cent of control (KDR (human)): 55%; kinase still bound, per cent of control (DAPK1 (human)): 100%; kinase still bound, per cent of control (CSF1R (human)): 82%; kinase still bound, per cent of control (NEK5 (human)): 100%; kinase still bound, per cent of control (ULK2 (human)): 73%; kinase still bound, per cent of control [3]: 100%; kinase still bound, per cent of control (MYLK4 (human)): 20%; kinase still bound, per cent of control (PKN2 (human)): 87%; kinase still bound, per cent of control (RPS6KA1 KD1 (human)): 100%; kinase still bound, per cent of control (LRRK2 (human)): 57%; kinase still bound, per cent of control (STK35 (human)): 97%; kinase still bound, per cent of control (PRKCQ (human)): 100%; kinase still bound, per cent of control (STK17A (human)): 100%; kinase still bound, per cent of control [4]: 31%; kinase still bound, per cent of control (ADCK4 (human)): 48%; kinase still bound, per cent of control (EPHA2 (human)): 100%; kinase still bound, per cent of control (MAP3K3 (human)): 100%; kinase still bound, per cent of control (EPHA4 (human)): 100%; kinase still bound, per cent of control (NEK3 (human)): 100%; kinase still bound, per cent of control (IRAK1 (human)): 1.2%; kinase still bound, per cent of control (RPS6KA2 KD1 (human)): 98%; kinase still bound, per cent of control (AURKC (human)): 76%; kinase still bound, per cent of control (RIPK2 (human)): 100%; kinase still bound, per cent of control (FGR (human)): 100%; kinase still bound, per cent of control (ITK (human)): 85%; kinase still bound, per cent of control (CASK (human)): 100%; kinase still bound, per cent of control (FLT1 (human)): 32%; kinase still bound, per cent of control (CSNK1G3 (human)): 37%; kinase still bound, per cent of control (CDKL3 (human)): 100%; kinase still bound, per cent of control (IKBKE (human)): 100%; kinase still bound, per cent of control (PDGFRB (human)): 35%; kinase still bound, per cent of control (GSK3A (human)): 59%; kinase still bound, per cent of control (RPS6KA3 KD1 (human)): 87%
